Measured values published in the supplement of paper PMC10307832.

How the values were obtained:
Test in all cases: relative viability (nuclei count vs DMSO), 5 days (fraction); higher = more cells survive
Tivantinib + Alpelisib = compound: O=C1NC(=O)[C@@H](c2cn3c4c(cccc24)CCC3)[C@@H]1c1c[nH]c2ccccc12 [Tivantinib] + Cc1nc(NC(=O)N2CCC[C@H]2C(N)=O)sc1-c1ccnc(C(C)(C)C(F)(F)F)c1 [Alpelisib] (partner 2 µM)
How it was run: (§1)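 After 5 days of treatment, lung cancer cells in 1536-well plates were fixed and stained in a single step (final 0.05% Triton X-100, 1% formaldehyde, 1 ug/ml Hoechst) and their nuclei counted on 4× images. Treatment had been applied by pin tool the day after seeding as one drug alone or as a fixed anchor-drug dose with five library-drug doses (not always all listed) in √10 steps. Relative viability is the nuclei count of treated wells divided by that of vehicle wells, and values are medians of duplicate plates.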

Crenolanib + Phenformin = compound: CC1(COc2ccc3c(c2)ncn3-c2ccc3cccc(N4CCC(N)CC4)c3n2)COC1 [Crenolanib] + N=C(N)NC(=N)NCCc1ccccc1 [Phenformin] (partner 250 µM)
How it was run: as §1

Crenolanib + Navitoclax = compound: CC1(COc2ccc3c(c2)ncn3-c2ccc3cccc(N4CCC(N)CC4)c3n2)COC1 [Crenolanib] + CC1(C)CCC(c2ccc(Cl)cc2)=C(CN2CCN(c3ccc(C(=O)NS(=O)(=O)c4ccc(N[C@H](CCN5CCOCC5)CSc5ccccc5)c(S(=O)(=O)C(F)(F)F)c4)cc3)CC2)C1 [Navitoclax] (partner 0.5 µM)
How it was run: as §1

Tivantinib + Luminespib = compound: O=C1NC(=O)[C@@H](c2cn3c4c(cccc24)CCC3)[C@@H]1c1c[nH]c2ccccc12 [Tivantinib] + CCNC(=O)c1noc(-c2cc(C(C)C)c(O)cc2O)c1-c1ccc(CN2CCOCC2)cc1 [Luminespib] (partner 0.01 µM)
How it was run: as §1

Cell Line | relative viability (Tivantinib + Alpelisib; first compound 0.01 µM) | relative viability (Tivantinib + Alpelisib; first compound 0.03162 µM) | relative viability (Tivantinib + Alpelisib; first compound 0.1 µM) | relative viability (Tivantinib + Alpelisib; first compound 0.3162 µM) | relative viability (Crenolanib + Phenformin; first compound 0.01 µM) | relative viability (Crenolanib + Phenformin; first compound 0.03162 µM) | relative viability (Crenolanib + Phenformin; first compound 0.1 µM) | relative viability (Crenolanib + Phenformin; first compound 0.3162 µM) | relative viability (Crenolanib + Phenformin; first compound 1 µM) | relative viability (Crenolanib + Navitoclax; first compound 0.01 µM) | relative viability (Crenolanib + Navitoclax; first compound 0.03162 µM) | relative viability (Crenolanib + Navitoclax; first compound 0.1 µM) | relative viability (Crenolanib + Navitoclax; first compound 0.3162 µM) | relative viability (Crenolanib + Navitoclax; first compound 1 µM) | relative viability (Tivantinib + Luminespib; first compound 0.01 µM) | relative viability (Tivantinib + Luminespib; first compound 0.03162 µM) | relative viability (Tivantinib + Luminespib; first compound 0.1 µM) | relative viability (Tivantinib + Luminespib; first compound 0.3162 µM)
HCC-827 | 1.04 | 1.03 | 0.922 | 0.719 | 0.446 | 0.401 | 0.427 | 0.445 | 0.403 | 0.976 | 1.03 | 0.978 | 1.07 | 0.995 | 0.472 | 0.661 | 0.699 | 0.378
HOP-62 | 1.04 | – | 0.648 | 0.923 | 0.616 | 0.711 | 0.722 | 0.815 | 0.7 | 1.08 | 0.958 | 0.81 | 1.06 | 1.12 | 0.889 | 0.892 | 0.917 | 0.89
IA-LM | 0.878 | 0.653 | 0.853 | 0.815 | – | – | – | – | – | 0.749 | 0.692 | 0.809 | 0.95 | 0.948 | – | – | – | –
LC-2-ad | 0.889 | 0.93 | 0.847 | 0.904 | 0.648 | 0.562 | 0.573 | 0.536 | 0.446 | 0.492 | 0.48 | 0.367 | 0.647 | 0.54 | 0.995 | 1.17 | 0.94 | 0.906
LCLC-97TM1 | 0.237 | 0.215 | 0.2 | 0.198 | 0.476 | 0.477 | 0.457 | 0.455 | 0.455 | 0.489 | 0.525 | 0.489 | 0.473 | 0.445 | 0.773 | 0.788 | 0.673 | 0.764
LCLC-103H | 0.905 | 0.938 | 0.839 | 0.86 | 0.316 | 0.329 | 0.295 | 0.34 | 0.352 | – | – | – | – | – | 1.02 | 0.938 | 0.976 | 0.856
LK-2 | 1.24 | – | 0.58 | 0.668 | 0.472 | 0.446 | 0.411 | 0.314 | 0.317 | 0.909 | 1.07 | 0.93 | 1.05 | 0.933 | 0.217 | – | 0.208 | 0.197
LOU-NH91 | 0.663 | 0.695 | 0.742 | 0.533 | 0.862 | 0.657 | 0.711 | 0.667 | 0.692 | 0.853 | 0.702 | 0.645 | 0.641 | 0.737 | 0.373 | 0.369 | 0.309 | 0.367
LU99A | 0.477 | 0.477 | 0.453 | 0.369 | 0.95 | 0.748 | 0.818 | 0.902 | 0.822 | 0.989 | 0.802 | 0.846 | 0.893 | 0.964 | 0.277 | 0.26 | 0.235 | 0.208
LXF-289 | 1.06 | 1.01 | 1.03 | 1.04 | 0.514 | 0.538 | 0.523 | 0.524 | 0.483 | 0.92 | 0.977 | 0.873 | 1 | 0.929 | 0.757 | 0.646 | 0.599 | 0.723
NCI-H23 | 0.778 | 0.623 | 0.717 | 0.557 | 0.887 | 0.855 | 0.753 | 0.841 | 0.669 | 0.805 | 0.992 | 0.899 | 1.03 | 0.822 | 0.278 | – | 0.215 | 0.226
NCI-H322M | 0.699 | 0.891 | 0.719 | 0.546 | 0.794 | 0.802 | 0.755 | 0.835 | 0.803 | 1.12 | 1.14 | 1.19 | 1.28 | 1.38 | 0.977 | 0.874 | 0.737 | –
NCI-H358 | 0.911 | 0.78 | 0.827 | 0.365 | 0.372 | 0.321 | 0.3 | 0.292 | 0.239 | – | – | – | – | – | 0.323 | 0.332 | 0.377 | 0.157
NCI-H522 | – | – | – | – | 0.706 | 0.641 | 0.756 | 0.656 | 0.675 | – | – | – | – | – | 1.33 | 0.989 | 0.93 | 0.685
NCI-H650 | 1.24 | – | 0.956 | 1.02 | 0.468 | 0.405 | 0.48 | 0.445 | 0.445 | – | – | – | – | – | 0.895 | 0.798 | 0.739 | 0.432
NCI-H661 | 0.404 | 0.86 | 0.72 | – | 0.284 | 0.275 | 0.289 | 0.283 | 0.289 | – | – | – | – | – | 0.936 | 0.93 | 0.954 | 0.799
NCI-H1299 | 1.09 | 1.01 | 1.01 | 1.02 | – | – | – | – | – | 1.04 | 1.04 | 0.987 | 1.08 | 1.06 | – | – | – | –
NCI-H1563 | 1.04 | 0.89 | 0.932 | 1.06 | 0.615 | 0.66 | 0.699 | 0.607 | 0.672 | – | – | – | – | – | 0.52 | 0.517 | 0.478 | 0.534
NCI-H1623 | – | – | – | – | 0.592 | 0.595 | 0.543 | 0.585 | 0.553 | – | – | – | – | – | 0.504 | 0.553 | 0.545 | –
NCI-H1650 | – | – | – | – | 0.527 | 0.448 | 0.431 | 0.383 | 0.353 | 1.22 | 1.13 | 1.14 | 1.6 | 1.34 | 0.203 | 0.191 | 0.203 | 0.192
NCI-H1703 | 0.499 | 0.329 | 0.256 | 0.334 | – | – | – | – | – | 1 | 0.657 | 0.286 | 0.254 | 0.198 | – | – | – | –
NCI-H2342 | – | – | – | – | 0.724 | 0.525 | 0.556 | 0.652 | 0.64 | – | – | – | – | – | 0.741 | 0.739 | 0.716 | 0.598
SW 900 | – | – | – | – | 0.81 | 0.697 | 0.55 | 0.416 | 0.585 | – | – | – | – | – | 0.191 | 0.177 | 0.162 | 0.145
